Source: ChEMBL document CHEMBL4842343, “1,10-Seco-Eudesmane sesquiterpenoids as a new type of anti-neuroinflammatory agents by suppressing TLR4/NF-κB/MAPK pathways” (Eur J Med Chem, 2021)

What was measured:
[1] = Inhibition of LPS-induced NO production in mouse BV-2 cells incubated for 24 hrs by Griess reagent based assay; type: functional, cell-based
BV-2 = assay: Cytotoxicity against LPS-stimulated mouse BV-2 cells assessed as reduction in cell viability at 20 uM measured after 24 hrs by MTT assay relative to control; type: cell-based; conditions: bv-2, 24 h
[2] = Mus musculus, BV-2, 24 h, read-out: EC50

C=C1C(=O)O[C@@H]2CC(CN3CCOCC3)=C([C@@H](C)CCCOC(C)=O)[C@@H](OC(C)=O)[C@H]12
EC50 [1, 2]: 14.4 µM | Activity (BV-2): 91.3%

CC(=O)OCCC[C@H](C)C1=C(C)C[C@H]2OC(=O)C(Cc3ccc(O)cc3)=C2[C@@H]1O
EC50 [1, 2]: 15.9 µM | Activity (BV-2): 90.1%

CC(=O)OCCC[C@H](C)C1=C(C)C[C@H]2OC(=O)[C@]3(CC(c4ccc(N(C)C)cc4)=NO3)[C@H]2[C@@H]1OC(C)=O
EC50 [1, 2]: 28.6 µM | Activity (BV-2): 9%

C=C1C(=O)O[C@H]2[C@@H]1[C@H](OC(C)=O)C([C@@H](C)CCCOC(C)=O)=C(C)[C@@H]2c1ccccc1
EC50 [1, 2]: 4.5 µM | Activity (BV-2): 91.7%

COc1ccc(C2=NO[C@]3(C2)C(=O)O[C@@H]2CC(C)=C([C@@H](C)CCCOC(C)=O)[C@@H](OC(C)=O)[C@@H]23)cc1
EC50 [1, 2]: > 50 µM | Activity (BV-2): 96.5%

C=C1C(=O)O[C@H]2[C@@H]1[C@H](OC(C)=O)C([C@@H](C)CCCOC(C)=O)=C(C)[C@H]2N
EC50 [1, 2]: 3.8 µM | Activity (BV-2): 90.9%

C=C1C(=O)O[C@H]2[C@@H]1[C@H](OC(C)=O)C([C@@H](C)CCCOC(C)=O)=C(C)[C@H]2N=[N+]=[N-]
EC50 [1, 2]: 6.7 µM | Activity (BV-2): 93.2%

C=C1C(=O)O[C@@H]2CC(=C)C(Cl)([C@@H](C)CCCOC(C)=O)[C@@H](OC(C)=O)[C@H]12 (some centres undefined)
EC50 [1, 2]: 1 µM | Activity (BV-2): 90.9%

C=C1C(=O)O[C@@H]2CC(CN3CCCCC3)=C([C@@H](C)CCCOC(C)=O)[C@@H](OC(C)=O)[C@H]12
EC50 [1, 2]: 18.4 µM | Activity (BV-2): 92.8%

CC(=O)OCCC[C@H](C)C1=C(C)C[C@H]2OC(=O)[C@]3(CC(c4ccccc4[N+](=O)[O-])=NO3)[C@H]2[C@@H]1OC(C)=O
EC50 [1, 2]: > 50 µM | Activity (BV-2): 97.1%

CC(=O)OCCC[C@H](C)C1=C(C)C[C@H]2OC(=O)[C@]3(CC(c4ccccc4Br)=NO3)[C@H]2[C@@H]1OC(C)=O
EC50 [1, 2]: > 50 µM | Activity (BV-2): 98.6%

C=C1C(=O)O[C@@H]2C[C@@]3(C)O[C@@]3([C@@H](C)CCCOC(C)=O)[C@@H](OC(C)=O)[C@H]12
EC50 [1, 2]: 2.8 µM | Activity (BV-2): 89.5%

CC(=O)OCCC[C@H](C)C1C(C)C[C@H]2OC(=O)C(C)[C@H]2[C@@H]1O (mixture of isomers)
EC50 [1, 2]: > 50 µM | Activity (BV-2): 98.5%

C=C1C(=O)O[C@H]2[C@@H]1[C@H](OC(C)=O)C([C@@H](C)CCCOC(C)=O)=C(C)[C@@H]2Br
EC50 [1, 2]: 9.1 µM | Activity (BV-2): 96.1%

C=C1C(=O)O[C@H]2[C@@H]1[C@H](OC(C)=O)C([C@@H](C)CCCOC(C)=O)=C(C)[C@H]2n1cc(-c2ccccc2)nn1
EC50 ([1]; bv-2): Not Active | Activity (BV-2): 57.3%

C=C1C(=O)O[C@@H]2C=C(C)C(Cl)([C@@H](C)CCCOC(C)=O)[C@@H](OC(C)=O)[C@H]12 (some centres undefined)
EC50 [1, 2]: 2 µM | Activity (BV-2): 90.8%

CC(=O)OCCC[C@H](C)C1=C(C)C[C@H]2OC(=O)/C(=C/c3ccc(O)cc3)[C@H]2[C@@H]1O
EC50 [1, 2]: 31.5 µM | Activity (BV-2): 102.5%

C#Cc1ccc(-c2cn([C@@H]3C(C)=C([C@@H](C)CCCOC(C)=O)[C@@H](OC(C)=O)[C@@H]4C(=C)C(=O)O[C@@H]43)nn2)cc1
EC50 ([1]; bv-2): Not Active | Activity (BV-2): 38.5%

COc1ccccc1C1=NO[C@]2(C1)C(=O)O[C@@H]1CC(C)=C([C@@H](C)CCCOC(C)=O)[C@@H](OC(C)=O)[C@@H]12
EC50 [1, 2]: > 50 µM | Activity (BV-2): 99.2%

C=C1C[C@H]2OC(=O)C(=C)[C@H]2C=C1[C@@H](C)CCCOC(C)=O
EC50 ([1]; bv-2): Not Active | Activity (BV-2): 54.2%

C=C1C(=O)O[C@@H]2CC(CN3CCCC3)=C([C@@H](C)CCCOC(C)=O)[C@@H](OC(C)=O)[C@H]12
EC50 [1, 2]: 30.2 µM | Activity (BV-2): 95.2%

CC(=O)OCCC[C@H](C)C1=C(C)C[C@H]2OC(=O)[C@]3(CC(c4ccccc4)=NO3)[C@H]2[C@@H]1OC(C)=O
EC50 [1, 2]: 33 µM | Activity (BV-2): 96.6%
